Results reported in patent US4481218A, “3-(2,2,2-Trimethylhydrazinium)propionate and method for the preparation and use thereof” (Institut Organicheskogo Sinteza Akademii Nauk Latviiskoi SSR, priority 1978, dated 1984).

Experiments:
in vivo = assay: in vivo; set-up: species or system white mice; conditions: mouse, ip
Method: (§1) The toxicological study of 3-(2,2,2-trimethylhydrazinium)-propionate on white mice weighing 20-25 g has shown that with a single peroral administration to the animals in doses of up to 23,000 mg/kg the preparation causes no death of the animals.

white mice = assay: in vivo; conditions: mouse
Method: as §1

[1] = tested on: microbless pig mini-sucklings; assay: growth stimulant efficiency in microbless pig mini-sucklings (Example 8, Table 3); format: in vivo
Method: The efficiency of the growth stimulant for animals according to the present invention was tested in feeding of microbless animals. The test was carried out in microbless pig mini-sucklings grown without under sterile conditions in a comparison with pig mini sucklings grown keeping to the requirements of sterile conditions, since birth and to the age of two-months, a feedstuff containing 0.04% by weight of the active principle. Their growth was compared to that of 10 sucklings grown without keeping to sterility conditions and the development of 7 microbless pig sucklings. By the end of the experiment the test pig sucklings were 17.2% heavier than the microbless pig sucklings given no growth stimulant and 18.2% heavier than the sucklings grown under nonsterile conditions and given no growth stimulator.

animals and fowl = assay: specific (growth-stimulating) activity on animals and fowl, general; format: in vivo
Source text: (§2) The study of specific activity of 3-(2,2,2-trimethylhydrazinium)-propionatewas effected on various animals: mice, rats, pigs, cattle, chickens, goslings, turkey poults and ducklings. The growth-controlling activity of this compound relative to plats has been studied on barley, oats, rye and wheat.

[2] = tested on: barley, oats, rye and wheat; assay: growth-controlling activity on plants; format: in vivo
Source text: as §2

solubility = format: physicochemical
Method: The compound according to the present invention, viz. 3-(2,2,2-trimethylhydrazinium)propionate comprises a colourless crystalline powder with a melting point of 254°-256° C. (from ethanol). […] (p.p.m.): 6.70 singlet, (CH3)3 N; 6.89, triplet, CH2,

pubertal rats = assay: growth stimulator efficiency in pubertal rats (Example 11, Table 6); format: in vivo, rat
Method: (§3) The efficiency of the growth stimulator was studied on young rats. The experiment was carried out with nondescript young rats weighting about 75 g in groups of 30 animals in each. The growth stimulator was administered perorally to each rat as an aqueous solution at a rate of from 0.1 to 0.001% by weight of the consumed daily diet. The administration of the growth stimulator was effected every day during 10 days. The observation period was 20 days; the rats were weighed after every 4 days. […] On completion of the experiment the animals were killed and the parenchymatous organs and peripheral blood were analyzed.
The growth stimulator efficiency was studied on pubertal rats. The experiment conditions were similar to those described in the foregoing Example 10.

chicks [3] = assay: growth stimulant efficiency in chicks, 0.04% in feedstuff (Example 7, Table 2); format: in vivo; conditions: 0.04% by weight in feedstuff
Method: (§4) The growth stimulator for animals and fowl containing 3-(2,2,2-trimethylhydrazinium)-propionate as the active principle is tested for efficiency. The test is conducted in chicks of 6 days of age, the test group consisting of 50 chicks and the control group--50 chicks. The test chicks were fed with a feedstuff containing 0.02% by weight of the active principle, the control group--only basic diet without the addition of the active principle. The chicks' diet contained, % by weight: barley--20, wheat--6, corn--40, sunflower and soya-bean grist--19, fish flour--7, meat-bone flour--3, yeast--5. One kilogram of the feedstuff contained 1.25 feeding unit, 3,135 kCal of exchange energy, 21% of a crude protein, 4% of crude cellulose and 197 g of digestable protein.
The experiment for testing efficiency of the growth stimulant for animals and fowl according to the present invention was carried out following the procedure similar to that described in the foregoing Example 6; added to the feedstuff was 0.04% by weight of the active principle based on the feedstuff weight. By the end of the 34-days' period the chicks of the test groups fed with the growth stimulant were 12.9% heavier.

white-breed young pigs = assay: growth stimulator efficiency in white-breed young pigs (Example 9, Table 4); format: in vivo, pig; conditions: 0.02% by weight, 122 days
Method: The efficiency of the growth stimulator was tested on white-breed young pigs deprived of mother's milk with the body weight of about 20 kg, […], in each group.
The young pigs were in the same pig sty and serviced by one operator; all of the animals were on the same diet consisting of barley flour, green mass of a vetch-oat mixture and whey. The animals were fed two times a day with free watering. To the feedstuff of the test group there were added 200 mg of 3-(2,2,2-trimethylhydrazinium)propionate per 1 kg of dry substance of the feed-stuff (0.02% by weight of the active principle).

young rats = assay: growth stimulator efficiency in young rats (Example 10, Table 5); format: in vivo, rat
Method: as §3

chicks [4] = assay: growth stimulator efficiency in chicks, 0.02% in feedstuff (Example 6, Table 1); format: in vivo; conditions: 0.02% by weight in feedstuff
Method: as §4

[5] = 0.001% of the active principle, day 4
[6] = 0.001% of the active principle, day 8
[7] = 0.001% of the active principle, day 12
[8] = 0.001% of the active principle, day 16
[9] = 0.001% of the active principle, day 20
[10] = 0.01% of the active principle, day 4
[11] = 0.01% of the active principle, day 8
[12] = 0.01% of the active principle, day 12
[13] = 0.01% of the active principle, day 16
[14] = 0.01% of the active principle, day 20

C[N+](C)(C)NCCC(=O)[O-] [3-(2,2,2-trimethylhydrazinium)-propionate]
NOAEL (in vivo): ≥ 10000 mg/kg | single peroral dose causing no death of the animals (white mice): up to 23,000 mg/kg | heavier than the microbless pig sucklings given no growth stimulant ([1]; 0.04% by weight, 2 months' age): 17.2% | heavier than the sucklings grown under nonsterile conditions and given no growth stimulator ([1]; 0.04% by weight, 2 months' age): 18.2% | Animal weight at the 2-months' age ([1]; microbless mini-pigs, 0.04% by weight of feedstuff, untreated microbless 3,271 ± 385, ordinary 3,244 ± 335): 3,833 ± 348 g | growth-stimulating activity (animals and fowl; animals and fowl): clearly pronounced growth-stimulating activity | daily weight gain (animals and fowl; depending on the variety of animals and fowl): 8-24% | metabolism (animals and fowl; test animals and fowl): metabolism is improved | reduction of the rate of feedstock consumption per weight gain unit (animals and fowl; test animals and fowl): 7-15% | specific gravity of grain crops ([2]; grain crops): increased | yield gain of crops ([2]; grain crops): 15-30% | increase in the stem diameter of crops ([2]; oats, barley, rye, wheat): 15% | stability against lodging ([2]; oats, barley, rye, wheat): improving their stability against lodging | growth-controlling effect ([2]; plants): clearly pronounced growth-controlling effect | solubility in ethanol and methanol (solubility; ethanol and methanol): well soluble | solubility in water (solubility; water): very readily soluble | Weight on the weighing day (pubertal rats; [5]): 175 g | Weight on the weighing day (pubertal rats; [6]): 189 g | Weight on the weighing day (pubertal rats; [7]): 210 g | Weight on the weighing day (pubertal rats; [8]): 231 g | Weight on the weighing day (pubertal rats; [9]): 248 g | Weight on the weighing day (pubertal rats; [10]): 169 g | Weight on the weighing day (pubertal rats; [11]): 175 g | Weight on the weighing day (pubertal rats; [12]): 189 g | Weight on the weighing day (pubertal rats; [13]): 215 g | Weight on the weighing day (pubertal rats; [14]): 229 g | Weight on the weighing day (pubertal rats; 0.1% of the principle, day 4): 155 g | Weight on the weighing day (pubertal rats; 0.1% of the principle, day 8): 161 g | Weight on the weighing day (pubertal rats; 0.1% of the principle, day 12): 174 g | Weight on the weighing day (pubertal rats; 0.1% of the principle, day 16): 187 g | Weight on the weighing day (pubertal rats; 0.1% of the principle, day 20): 203 g | body weight gain (pubertal rats; active principle 0.001% by weight of the dry feedstuff): 13.5% | body weight gain (pubertal rats; active principle 0.101% (so in the source) by weight of the dry feedstuff): 9% | chicks heavier by the end of the 34-days' period (chicks [3]): 12.9% | Average body weight of chicks, aged 30 days (chicks [3]; control 261.9): 268.9 g | Average mass gain for the test time (chicks [3]; control 313 ± 3): 353 ± 8 g | Average body weight of chicks, aged 40 days (chicks [3]; control 364.3): 404.8 g | Average body weight of chicks, aged 6 days (chicks [3]; test beginning): 51.0 g | Percentage to the control (chicks [3]; mass gain, control = 100.0): 112.9% | Average daily weight gain, percent of the control (white-breed young pigs): 112.4% of the control | Feedstuff consumption per 1 kg of the body weight gain, % of control (white-breed young pigs): 92.9 % of control | weight gain higher as compared to the control group animals (white-breed young pigs): 7.4 kg | Feedstuff consumption per 1 kg of the body weight gain (white-breed young pigs; control 4.38): 4.07 feeding units | Body weight gain during the test period (white-breed young pigs; control 59.0 ± 2.1): 66.4 ± 3.6 kg | Average body weight by the test end (white-breed young pigs; control 74.0 ± 3.2): 88.2 ± 4.0 kg | Feedstuff consumption during the test period (white-breed young pigs; control 285.5): 270.7 feeding units | Average daily weight gain (white-breed young pigs; control 484 ± 17): 544 ± 32 g | reduction of consumption of feeding units per kilogram of the weight gain (white-breed young pigs; vs control): 7.1% | increase of body weight gain of the rats (young rats; 0.001% by weight of the daily diet): 12.5% | Weight on the day of weighing (young rats; [5]): 76 g | Weight on the day of weighing (young rats; [6]): 99 g | Weight on the day of weighing (young rats; [7]): 131 g | Weight on the day of weighing (young rats; [8]): 154 g | Weight on the day of weighing (young rats; [9]): 164 g | increase of body weight gain of the rats (young rats; 0.01% by weight of the daily diet): 12% | Weight on the day of weighing (young rats; [10]): 79 g | Weight on the day of weighing (young rats; [11]): 93 g | Weight on the day of weighing (young rats; [12]): 125 g | Weight on the day of weighing (young rats; [13]): 139 g | Weight on the day of weighing (young rats; [14]): 158 g | effect on weight gain of the rats (young rats; 0.1% by weight of the daily diet): substantially did not affect the weight gain | Weight on the day of weighing (young rats; 0.1% of the active principle, day 4): 76 g | Weight on the day of weighing (young rats; 0.1% of the active principle, day 8): 95 g | Weight on the day of weighing (young rats; 0.1% of the active principle, day 12): 98 g | Weight on the day of weighing (young rats; 0.1% of the active principle, day 16): 107 g | Weight on the day of weighing (young rats; 0.1% of the active principle, day 20): 129 g | pathology of parenchymatous organs and peripheral blood (young rats; 0.1 to 0.001% by weight of the daily diet, perorally 10 days): No pathology was observed | Average body weight of chicks, aged 30 days (chicks [4]): 289.4 g | weight gain compared to the control chicks (chicks [4]; 34 days): 7.7% | Average gain for the test time (chicks [4]; 34 days, control 364.5 ± 10.1): 392.7 | Average body weight of chicks, aged 40 days (chicks [4]; end of 34 days, control 412.2 g): 440.5 g | Average body weight of chicks, aged 6 days (chicks [4]; test beginning (6 days of age)): 47.8 g | Percentage to the control (chicks [4]; average gain, control = 100.0): 107.7%
